Test results from PMC2222991 (The Journal of General Physiology, 1999).

Experiments:
[1] = tested on: RTL2; assay: inside-out patch macroscopic current, Hill fit; assay type: cell-based, Bos taurus / Caenorhabditis elegans; details: read-out: K 1/2; agonist; divalent-free solution pH 7.2; -80 or -100 mV; n = 4
[2] = tested on: RTL; assay: inside-out patch macroscopic and single-channel currents, Hill fit; assay type: cell-based, Bos taurus / Caenorhabditis elegans; details: read-out: K 1/2; agonist; divalent-free solution pH 7.2; -80 or -100 mV; n = 8
[3] = tested on: RTB; assay: inside-out patch macroscopic current, Hill fit; assay type: cell-based, Bos taurus / Caenorhabditis elegans; details: read-out: K 1/2; agonist; divalent-free solution pH 7.2; -80 or -100 mV; n = 5
[4] = tested on: RTL1; assay: inside-out patch macroscopic current, Hill fit; assay type: cell-based, Bos taurus / Caenorhabditis elegans; details: read-out: K 1/2; agonist; divalent-free solution pH 7.2; -80 or -100 mV; n = 4
[5] = target: T1, TAX-4 (C. elegans tax-4 CNG channel subunit) (Caenorhabditis elegans, UniProt Q03611); assay: inside-out patch macroscopic current, Hill fit; assay type: cell-based
T1 sequence (Q03611 1-733): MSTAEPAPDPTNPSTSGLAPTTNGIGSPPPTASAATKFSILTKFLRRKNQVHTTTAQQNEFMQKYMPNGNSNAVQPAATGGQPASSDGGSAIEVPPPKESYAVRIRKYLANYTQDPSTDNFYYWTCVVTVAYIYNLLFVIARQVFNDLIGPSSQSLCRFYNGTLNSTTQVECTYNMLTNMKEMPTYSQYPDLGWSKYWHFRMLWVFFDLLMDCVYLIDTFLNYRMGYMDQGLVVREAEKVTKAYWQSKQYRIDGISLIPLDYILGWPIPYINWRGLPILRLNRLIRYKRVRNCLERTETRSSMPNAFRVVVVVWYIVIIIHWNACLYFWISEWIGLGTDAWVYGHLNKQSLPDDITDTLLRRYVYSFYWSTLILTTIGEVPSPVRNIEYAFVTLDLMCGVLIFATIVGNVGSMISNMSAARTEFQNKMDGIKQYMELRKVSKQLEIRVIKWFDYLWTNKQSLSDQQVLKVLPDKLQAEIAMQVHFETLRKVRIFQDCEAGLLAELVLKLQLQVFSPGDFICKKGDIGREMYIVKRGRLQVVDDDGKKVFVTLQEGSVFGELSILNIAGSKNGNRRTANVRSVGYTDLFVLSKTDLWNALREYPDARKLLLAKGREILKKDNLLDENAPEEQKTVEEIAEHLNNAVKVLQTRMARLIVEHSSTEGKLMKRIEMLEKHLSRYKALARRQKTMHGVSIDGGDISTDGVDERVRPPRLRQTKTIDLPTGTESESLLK

[6] = tested on: ROPTL2; assay: inside-out patch macroscopic current, Hill fit; assay type: cell-based, Bos taurus / Caenorhabditis elegans / Ictalurus punctatus; details: read-out: K 1/2; agonist; divalent-free solution pH 7.2; -80 or -100 mV; n = 4
[7] = tested on: TRC; assay: inside-out patch macroscopic current, Hill fit; assay type: cell-based, Caenorhabditis elegans / Bos taurus; details: read-out: K 1/2; agonist; divalent-free solution pH 7.2; -80 or -100 mV; n = 4
[8] = tested on: RTC; assay: inside-out patch macroscopic current, Hill fit; assay type: cell-based, Bos taurus / Caenorhabditis elegans; details: read-out: K 1/2; agonist; divalent-free solution pH 7.2; -80 or -100 mV; n = 8

## Nc1nc2c(ncn2[C@@H]2O[C@@H]3COP(=O)(O)O[C@H]3[C@H]2O)c(=O)[nH]1 [cGMP]
[1]
  EC50: 4 µM
[2]
  EC50: 1 µM
[3]
  EC50: 63 µM
[4]
  EC50: 24 µM
[5]
  EC50: 0.4 µM
[6]
  EC50: 3 µM
[7]
  EC50: 4.7 µM
[8]
  EC50: 1.3 µM
